Results reported in paper PMC12449476, “Transient ligand contacts of the intrinsically disordered N-terminus of neuropeptide Y2 receptor regulate arrestin-3 recruitment” (Nature Communications, 2025).

How the values were obtained:
[1] = tested on: bicelle-reconstituted full-length cysteine-deficient Y2R; experiment: XL-MS competition experiment; type: binding, human; conditions: 50 × molar excess competitor
Protocol: (§1) Samples were denatured in 10% SDS, 100 mM Tris-HCl (pH 7.5) and subjected to S-Trap enrichment (Protifi, Fairport, NY, USA). Afterwards, proteins were reduced, alkylated, and enzymatically digested with AspN and trypsin according to an existing protocol. Samples were stored at − 20 °C before LC-MS analysis.

WT Nluc-Y2R-eYFP = target: T1, WT Nluc-Y2R-eYFP (Homo sapiens, UniProt P49146); conditions: small molecule antagonist vs labeled NPY; cited from earlier work
T1 construct: expressed in transfected cells; host or cells: membrane preparations of transiently transfected HEK293
T1 sequence (P49146 1-381): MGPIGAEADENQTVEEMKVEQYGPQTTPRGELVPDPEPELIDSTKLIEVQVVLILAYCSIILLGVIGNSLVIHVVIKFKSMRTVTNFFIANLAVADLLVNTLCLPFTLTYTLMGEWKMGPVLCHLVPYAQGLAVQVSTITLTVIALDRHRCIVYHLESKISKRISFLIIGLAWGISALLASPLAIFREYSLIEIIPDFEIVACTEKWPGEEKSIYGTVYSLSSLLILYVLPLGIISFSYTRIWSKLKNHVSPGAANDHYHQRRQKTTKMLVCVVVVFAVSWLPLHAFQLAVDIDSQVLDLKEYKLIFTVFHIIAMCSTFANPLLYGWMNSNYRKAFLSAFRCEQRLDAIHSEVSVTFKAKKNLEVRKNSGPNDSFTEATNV
Source text: In the following, we are addressing the Reviewer’s comments point‐by‐point. We quote statements from the Reviewer in bold face. We refer to changes made in the manuscript in yellow italics. Reviewer #1 (Remarks to the Author): In this work ...

[2] = tested on: bicelle-reconstituted full-length cysteine-deficient Y2R; experiment: XL-MS with full-length Y2R; type: binding, human; conditions: LC-TIMS-MS/MS
Protocol: as §1
Peptide mixtures were reconstituted in an aqueous solution of 3% (v/v) ACN and 0.05% (v/v) TFA prior to LC-TIMS-MS/MS analysis on an UltiMate 3000 RSLC nano-HPLC system (Thermo Fisher Scientific, Waltham, MA, USA) coupled to a timsTOF Pro mass spectrometer (Bruker Daltonics, Bremen, Germany). Peptides were trapped and desalted on a C18 precolumn (Acclaim PepMap 100, 300 μm × 5 mm, 5 μm, 100 Å, Thermo Fisher Scientific, Waltham, MA, USA) with aqueous 0.1 % (v/v) TFA at a flow rate of 30 μL/min (precolumn temperature 50 °C). Using a flow of 300 nL/min, peptide mixtures were then eluted and separated on a self-packed Picofrit C18 column, 75 µm ID x 40 cm, Tip ID 15 µm (New Objective, Littleton, MA, USA), packed with Reprosil-Pur 120 C18-AQ, 3 µm, 120 Å material (Dr. Maisch GmbH, Ammerbuch, Germany) or a µPAC 50 C18 column (PharmaFluidics, Thermo Fisher Scientific, Germany). Linear gradients were from 3% to 50% B over 90 min, 50% to 85% B (over 5 min) and 85% B (5 min); solvent A: water containing 0.1% (v/v) formic acid and solvent B: acetonitrile containing 0.1% (v/v) formic acid, the separation column was kept at 40 °C. To align results obtained with different chromatographic conditions, unmodified peptides were used as indexed retention time (iRT) standards.
Identification of cross-links was performed by a MeroX (v. 2.0.1.7, ref. [77]) search against a fasta file containing the amino acid sequences of triply diazirine-substituted [L17pL, L24pL, L30pL] […] The following settings were employed: semi-specific proteolytic cleavage: C-terminal at Lys and ArgR and N-terminal at Asp and Glu with up to 3 missed cleavages for each site and a maximum of 5 missed cleavages per peptide; peptide length of 4–25 amino acids; fixed modifications: carbamidomethylation of Cys; variable modifications: oxidation of Met; precursor and fragment mass tolerances were set to 10 ppm. […] Two searches were performed per data set, considering photo-leucine reactivity towards (i) only the acidic amino acids Asp and Glu and the protein C-terminus and (ii) reactivity towards all 20 amino acids. Peptide spectral matches were initially filtered to a 10% intensity score, a minimum score cut-off of 30 and 1% FDR (false discovery rate). Lenient FDR filters were compensated by manual validation of all proposed cross-links. In addition, DDA-PASEF data were analyzed with Skyline[78] as described recently. […]

photo-NPY = experiment: XL-MS, intramolecular NPY cross-links; type: binding; conditions: detected in N-term peptide experiment only
Protocol: as §1
Peptide mixtures were reconstituted in an aqueous solution of 3% (v/v) ACN and 0.05% (v/v) TFA prior to LC-TIMS-MS/MS analysis on an UltiMate 3000 RSLC nano-HPLC system (Thermo Fisher Scientific, Waltham, MA, USA) coupled to a timsTOF Pro mass spectrometer (Bruker Daltonics, Bremen, Germany). Peptides were trapped and desalted on a C18 precolumn (Acclaim PepMap 100, 300 μm × 5 mm, 5 μm, 100 Å, Thermo Fisher Scientific, Waltham, MA, USA) with aqueous 0.1 % (v/v) TFA at a flow rate of 30 μL/min (precolumn temperature 50 °C). […]
Identification of cross-links was performed by a MeroX (v. 2.0.1.7, ref. [77]) search against a fasta file containing the amino acid sequences of triply diazirine-substituted [L17pL, L24pL, L30pL] […] In addition, DDA-PASEF data were analyzed with Skyline[78] as described recently. […]

Number of peptide-receptor cross-links ([2]; total)	Compound	Effect of excess unlabeled ligand on cross-links [1]	Blocking of high- and low-affinity binding (WT Nluc-Y2R-eYFP)	Number of contact points to Y2R NT [2]	Number of contacts to ECL2 [2]	Number of cross-links to extracellular regions of Y2R [2]	Intra-NPY cross-linked positions (photo-NPY)
	CCN(CC)C(=O)C(c1ccccc1)N1CCN(c2ccc(NC(=O)c3ccccc3-c3cccnc3)cc2F)CC1 (stereo not shown) [JNJ-31020028, N-(4-{4-[2-(diethylamino)-2-oxo-1-phenylethyl]piperazin-1-yl}-3-fluorophenyl)-2-pyridin-3-ylbenzamide]	essentially abolished all cross-links	can be blocked				
40	photo-NPY: triply diazirine-substituted photo-leucine [L17pL, L24pL, L30pL] NPY variant			16	three	34	pL30 & D6
